In PubChem BioAssay AID330 (DTP/NCI, 2004):
Values joined by “and” are separate entries in the source; they are usually repeats but may differ in a detail not shown here. Equal values may be shown once. Inconclusive results and toxic doses are left out.

Test system: P388 leukemia ip, CD2F1 mice, survival T/C
Assay: NCI In Vivo Anticancer Drug Screen. Data for tumor model P388 Leukemia (intraperitoneal) in CD2F1 (CDF1) mice
Settings: endpoint: median survival time, higher = longer survival
How it was run: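 Mice carrying the transplanted tumor received test compound or vehicle. Survival was recorded in each group, and the value is the treated-group measurement divided by that of the vehicle-treated control group.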

[1] = dose: 50.0 mg/kg/injection, schedule: Q04DX003 (ip), vehicle: saline with Tween-80
[2] = dose: 60.0 mg/kg/injection, schedule: Q01DX005 (ip), vehicle: saline with Tween-80
[3] = dose: 120.0 mg/kg/injection, schedule: Q01DX005 (ip), vehicle: saline with Tween-80
[4] = dose: 240.0 mg/kg/injection, schedule: Q01DX005 (ip), vehicle: saline with Tween-80

## CCN=C(N)Nc1ccc(NC(=O)c2ccc(C(=O)Nc3ccc(NC(N)=NCC)cc3)cc2)cc1
dose: 3.13 mg/kg/injection, schedule: Q01DX009 (ip), vehicle: saline with Tween-80
  T/C: 163 % of control
dose: 3.13 mg/kg/injection, schedule: Q04DX003 (ip), vehicle: saline with Tween-80
  T/C: 113 % of control
dose: 6.25 mg/kg/injection, schedule: Q01DX009 (ip), vehicle: saline with Tween-80
  T/C: 168 % of control
dose: 6.25 mg/kg/injection, schedule: Q04DX003 (ip), vehicle: saline with Tween-80
  T/C: 122 % of control
dose: 12.5 mg/kg/injection, schedule: Q01DX009 (ip), vehicle: saline with Tween-80
  T/C: 109 % of control and 113 % of control
dose: 25.0 mg/kg/injection, schedule: Q04DX003 (ip), vehicle: saline with Tween-80
  T/C: 200 % of control
[1]
  T/C: 181 % of control

## CCC/C(=N/NC(N)=O)C(OC)OC
dose: 37.5 mg/kg/injection, schedule: Q01DX009 (ip), vehicle: saline
  T/C: 92 % of control
dose: 75.0 mg/kg/injection, schedule: Q01DX009 (ip), vehicle: saline
  T/C: 90 % of control

## C[C@@]12C[C@@H](Br)[C@H](Br)C[C@]1(C)O2
dose: 50.0 mg/kg/injection, schedule: Q01DX005 (ip), vehicle: saline with Tween-80
  T/C: 104 % of control
dose: 100.0 mg/kg/injection, schedule: Q01DX005 (ip), vehicle: saline with Tween-80
  T/C: 106 % of control
dose: 200.0 mg/kg/injection, schedule: Q01DX005 (ip), vehicle: saline with Tween-80
  T/C: 101 % of control

## Nc1nc(N)c2nc(-c3ccc([N+](=O)[O-])cc3)c(=O)[nH]c2n1
[2]
  T/C: 94 % of control
[3]
  T/C: 91 % of control
[4]
  T/C: 91 % of control

## Nc1nc(=O)n(C2CC(O)C(O)C(CO)O2)cc1F (centres undefined)
dose: 100.0 mg/kg/injection, schedule: Q01DX009 (ip), vehicle: saline with Tween-80
  T/C: 109 % of control
dose: 200.0 mg/kg/injection, schedule: Q01DX009 (ip), vehicle: saline with Tween-80
  T/C: 97 % of control
dose: 400.0 mg/kg/injection, schedule: Q01DX009 (ip), vehicle: saline with Tween-80
  T/C: 93 % of control

## O=C(NC1CCC1)OCc1c(COC(=O)NC2CCC2)c(-c2ccc(Cl)c(Cl)c2)n2c1CCC2
dose: 3.13 mg/kg/injection, schedule: Q01DX009 (ip), vehicle: distilled water + Tween-80
  T/C: 117 % of control
dose: 12.5 mg/kg/injection, schedule: Q01DX009 (ip), vehicle: distilled water + Tween-80
  T/C: 155 % of control
dose: 25.0 mg/kg/injection, schedule: Q01DX009 (ip), vehicle: distilled water + Tween-80
  T/C: 173 % of control and 194 % of control

## CCCCC1SCC(=O)N1c1nncs1 (centres undefined)
[2]
  T/C: 104 % of control
[3]
  T/C: 98 % of control
[4]
  T/C: 103 % of control

## CC1CCN(C)CC1
dose: 25.0 mg/kg/injection, schedule: Q01DX005 (ip), vehicle: saline
  T/C: 104 % of control
dose: 50.0 mg/kg/injection, schedule: Q01DX005 (ip), vehicle: saline
  T/C: 97 % of control
dose: 100.0 mg/kg/injection, schedule: Q01DX005 (ip), vehicle: saline
  T/C: 105 % of control

## COc1ccc2c(c1)C(=O)C[C@@H]1[C@](C)(C#N)CCC[C@]21C
[2]
  T/C: 100 % of control
[3]
  T/C: 94 % of control
[4]
  T/C: 94 % of control

## COc1ccc2c(c1)CCC1C2=CC(=O)/C1=C\[O-].COc1ccc2c(c1)CCC1C2=CC(=O)/C1=C\[O-].[Cu+2] (centres undefined)
dose: 33.0 mg/kg/injection, schedule: Q04DX003 (ip), vehicle: saline with Tween-80
  T/C: 109 % of control
[1]
  T/C: 100 % of control and 90 % of control
dose: 75.0 mg/kg/injection, schedule: Q04DX003 (ip), vehicle: saline with Tween-80
  T/C: 100 % of control

## OCc1cc2ccccc2c2c1OCCOCCOCCOCCOCCOc1ccc3ccccc3c1-2
dose: 100.0 mg/kg/injection, schedule: Q04DX002 (ip), vehicle: saline with Tween-80
  T/C: 104 % of control
dose: 200.0 mg/kg/injection, schedule: Q04DX002 (ip), vehicle: saline with Tween-80
  T/C: 99 % of control
dose: 400.0 mg/kg/injection, schedule: Q04DX002 (ip), vehicle: saline with Tween-80
  T/C: 107 % of control

## CCOc1ccc(OCC)c(C(O)C(C)NC(C)C)c1 (centres undefined)
dose: 6.25 mg/kg/injection, schedule: Q01DX009 (ip), vehicle: Klucel (hydroxypropylcellulose) (HPC)
  T/C: 101 % of control
dose: 12.5 mg/kg/injection, schedule: Q01DX009 (ip), vehicle: Klucel (hydroxypropylcellulose) (HPC)
  T/C: 100 % of control
dose: 25.0 mg/kg/injection, schedule: Q01DX009 (ip), vehicle: Klucel (hydroxypropylcellulose) (HPC)
  T/C: 99 % of control and 115 % of control
